In general, IC50 refers to the concentration that gives 50% inhibition.

The target of experiment [1] is T1, Androgen receptor (Homo sapiens, UniProt P10275).
T1 sequence (P10275 whole entry): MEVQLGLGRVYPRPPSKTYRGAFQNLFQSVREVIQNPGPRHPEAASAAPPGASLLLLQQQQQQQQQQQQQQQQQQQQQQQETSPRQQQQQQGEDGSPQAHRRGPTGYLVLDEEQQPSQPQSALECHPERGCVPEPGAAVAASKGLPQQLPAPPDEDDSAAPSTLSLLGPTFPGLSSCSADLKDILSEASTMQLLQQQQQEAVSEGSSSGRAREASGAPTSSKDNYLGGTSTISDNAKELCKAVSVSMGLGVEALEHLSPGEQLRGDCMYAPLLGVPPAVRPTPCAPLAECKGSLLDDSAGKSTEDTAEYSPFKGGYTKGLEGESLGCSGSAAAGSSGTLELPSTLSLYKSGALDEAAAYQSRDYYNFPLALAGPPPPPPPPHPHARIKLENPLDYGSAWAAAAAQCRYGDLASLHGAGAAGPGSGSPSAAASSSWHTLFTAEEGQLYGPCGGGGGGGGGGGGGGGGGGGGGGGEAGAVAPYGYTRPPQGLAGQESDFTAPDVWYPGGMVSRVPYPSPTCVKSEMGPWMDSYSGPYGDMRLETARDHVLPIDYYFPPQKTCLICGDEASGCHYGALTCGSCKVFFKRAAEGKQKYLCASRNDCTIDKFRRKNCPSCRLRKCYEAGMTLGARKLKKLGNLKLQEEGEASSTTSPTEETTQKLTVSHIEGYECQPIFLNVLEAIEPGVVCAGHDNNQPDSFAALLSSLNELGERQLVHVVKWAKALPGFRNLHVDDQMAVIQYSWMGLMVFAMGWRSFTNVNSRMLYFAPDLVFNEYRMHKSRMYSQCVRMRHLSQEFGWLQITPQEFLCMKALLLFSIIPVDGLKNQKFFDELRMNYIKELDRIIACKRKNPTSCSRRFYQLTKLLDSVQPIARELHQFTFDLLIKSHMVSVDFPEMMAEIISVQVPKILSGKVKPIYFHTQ
Description: biochemical.
Description: Displacement of [3H]DHT from human cloned androgen receptor expressed in Sf9 cells

For experiment [2], the target named is T1, Androgen receptor.
Description: Antagonist activity at human androgen receptor expressed in human MDA-MB453 cells by luciferase reporter gene assay
For experiment [3], the system named is Syrian golden hamster. Description: Reduction of wax ester production in Syrian hamster ear topically dosed at 1% twice daily for 5 days per week for two weeks measured after 18 to 24 hrs of final dose by HPLC lipid analysis. In kind it is functional, Mesocricetus auratus. Also on record: scale not given: the % may be the effect or the level left.
The subject of experiment [4] is Syrian golden hamster. Description: Reduction of cholesterol ester production in Syrian hamster ear topically dosed at 1% twice daily for 5 days per week for two weeks measured after 18 to 24 hrs of final dose by HPLC lipid analysis. The class given is functional, Mesocricetus auratus. Also on record: scale not given: the % may be the effect or the level left.

`COc1cc(Oc2ccccc2C)ccc1C#N`: the IC50 against Androgen receptor [1] is 24 nM; against Androgen receptor [2], 81 nM.

As to `N#Cc1ccc(SCC2CCC2)cc1C(F)(F)F`, the results for the IC50 against Androgen receptor [1] and against Androgen receptor [2] were 63 nM and 702 nM, respectively.

As to `COc1cc(SCC2CCC2)ccc1C#N`, 441 nM corresponded to half-maximal inhibition against Androgen receptor [1] (IC50).

With `COc1cc(Oc2cccc(C)c2)ccc1C#N`, the concentration for half-maximal inhibition (IC50) was found to be 57 nM against Androgen receptor [1] and 197 nM against Androgen receptor [2].

For the compound `CC1(C)C(=O)N(c2ccc(C#N)c(C(F)(F)F)c2)C(=O)N1CCCCO` [RU-58841], the Activity with Syrian golden hamster [3] was found to be 95%.

Regarding `Cc1ccccc1Sc1ccc(C#N)c(C(F)(F)F)c1`, the figures for the 50% inhibitory concentration (IC50) on Androgen receptor [1] and against Androgen receptor [2] were 225 nM and 123 nM, respectively.

Regarding `Cc1cccc(C)c1Sc1ccc(C#N)c(C(F)(F)F)c1`, at Androgen receptor [1], half-maximal inhibition (IC50) required 411 nM.

Regarding `CCCCSc1ccc(C#N)c(C(F)(F)F)c1`, the IC50 was found to be 49 nM against Androgen receptor [1] and 838 nM against Androgen receptor [2].

For the compound `N#Cc1ccc(Sc2ccccc2F)cc1C(F)(F)F`, the Activity in the experiment with Syrian golden hamster [4] stood at 50%; in the experiment with Syrian golden hamster [3], 64%. Also, the IC50 against Androgen receptor [1] was 184 nM; at Androgen receptor [2], 54 nM.

In turn, `Cc1cc(C)c(Sc2ccc(C#N)c(C(F)(F)F)c2)c(C)c1` came in with an IC50 at Androgen receptor [1] of 1340 nM.

For `COc1cc(SCC2CC2)ccc1C#N`, the IC50 amounted to 169 nM against Androgen receptor [1] and 55 nM against Androgen receptor [2].

On to `COc1ccccc1Sc1ccc(C#N)c(C(F)(F)F)c1`, for which the IC50 was determined as 56 nM against Androgen receptor [1] and 37 nM on Androgen receptor [2].

Take `COc1cc(Sc2c(C)cc(C)cc2C)ccc1C#N`: the half-inhibitory concentration (IC50) on Androgen receptor [1] turned out to be 39 nM; at Androgen receptor [2], 69 nM.

Turning to `CC(C)(C)Sc1ccc(C#N)c(C(F)(F)F)c1`, on Androgen receptor [1], the IC50 was determined as 315 nM.

For `COc1cc(SC(C)C)ccc1C#N`, the Activity is recorded as 46% in the experiment on Syrian golden hamster [4] and 59% in the experiment on Syrian golden hamster [3]. The IC50 at Androgen receptor [1] is 29 nM; on Androgen receptor [2] it was 10 nM.

With `COc1cc(C#N)ccc1Oc1ccccc1C`, the half-inhibitory concentration (IC50) on Androgen receptor [1] was found to be 115 nM; against Androgen receptor [2], 48 nM.

With `N#Cc1ccc(SC2CCC2)cc1C(F)(F)F`, the figures for the IC50 on Androgen receptor [1] and on Androgen receptor [2] were 194 nM and 167 nM, respectively.

Consider `N#Cc1ccc(SCC2CC2)cc1C(F)(F)F`, for which the values for the Activity in the experiment on Syrian golden hamster [4] and in the experiment with Syrian golden hamster [3] were 35% and 43%, respectively. In addition, the IC50 against Androgen receptor [1] came to 35 nM; at Androgen receptor [2] it was 133 nM.

As to `COc1cc(Sc2c(C)cccc2C)ccc1C#N`, the Activity with Syrian golden hamster [4] was 45%; in the experiment with Syrian golden hamster [3] it was 66%. The IC50 was found to be 43 nM at Androgen receptor [1] and 30 nM against Androgen receptor [2].

For `COc1cc(Oc2ccc(C)cc2)ccc1C#N`, the IC50 is 200 nM on Androgen receptor [1] and 209 nM against Androgen receptor [2].

On to `Cc1ccccc1[S+]([O-])c1ccc(C#N)cc1Cl` (configuration not stated), for which the IC50 on Androgen receptor [1] is over 10000 nM.

Take `CCCSc1ccc(C#N)c(OC)c1`: the IC50 on Androgen receptor [1] was 40 nM; against Androgen receptor [2], over 1000 nM.

In the case of `COc1cc(C#N)ccc1Oc1ccc(C)cc1`, at Androgen receptor [1], the IC50 amounted to 5210 nM.

On Androgen receptor [1], `COc1cc(SCCC(C)C)ccc1C#N` gave a half-maximal inhibitory concentration (IC50) of 1730 nM.

`CC(C)CCSc1ccc(C#N)c(C(F)(F)F)c1` showed an IC50 on Androgen receptor [1] of 519 nM.

Consider `COc1cc(C#N)ccc1Oc1cccc(C)c1`, for which, at Androgen receptor [1], the IC50 amounted to 353 nM.

Take `COc1cc(Sc2ccccc2OC)ccc1C#N`: the figures for the IC50 on Androgen receptor [1] and against Androgen receptor [2] were 20 nM and 35 nM, respectively.

`CCCSc1ccc(C#N)c(C(F)(F)F)c1`: the IC50 on Androgen receptor [1] came to 23 nM; on Androgen receptor [2], 11 nM.

As for `CCCCSc1ccc(C#N)c(OC)c1`, the concentration for half-maximal inhibition (IC50) was determined as 84 nM against Androgen receptor [1] and 66 nM against Androgen receptor [2].

Turning to `CC(C)Sc1ccc(C#N)c(C(F)(F)F)c1`, the values for the Activity in the experiment on Syrian golden hamster [4] and in the experiment with Syrian golden hamster [3] were 40% and 46%, respectively. The IC50 against Androgen receptor [1] turned out to be 20 nM; against Androgen receptor [2] it was 89 nM.

On to `Cc1ccccc1Sc1ccc(C#N)cc1Cl`, for which the half-maximal inhibitory concentration (IC50) on Androgen receptor [1] was 43 nM; at Androgen receptor [2] it was 78 nM.

The values are drawn from ChEMBL document CHEMBL1153273, “4-(Alkylthio)- and 4-(arylthio)-benzonitrile derivatives as androgen receptor antagonists for the topical suppression of sebum production” (Bioorg Med Chem Lett, 2009).
